Settings: human gut metagenome, 24 h, 2 µM
Note: call rule not given here.

Row | Compound | Bacterial Biotransformation
1 | CC[C@@H](CO)NC(=O)[C@@H]1C=C2c3cccc4c3c(cn4C)C[C@H]2N(C)C1.O=C(O)/C=C\C(=O)O [METHYSERGIDE MALEATE] | Compound NOT metabolized
2 | CCOC(=O)[C@H](CCc1ccccc1)N[C@@H](C)C(=O)N1[C@H](C(=O)O)C[C@H]2CCCC[C@@H]21 [TRANDOLAPRIL] | Compound metabolized

Settings: human gut metagenome, 24 h, 2 µM
Remark: another data set of the same source

Row | Compound | Bacterial Biotransformation
3 | CC[C@@H](CO)NC(=O)[C@@H]1C=C2c3cccc4c3c(cn4C)C[C@H]2N(C)C1.O=C(O)/C=C\C(=O)O [METHYSERGIDE MALEATE] | Compound NOT metabolized
4 | CCOC(=O)[C@H](CCc1ccccc1)N[C@@H](C)C(=O)N1[C@H](C(=O)O)C[C@H]2CCCC[C@@H]21 [TRANDOLAPRIL] | Compound NOT metabolized

Assay: The drug is tested on Z-008 corresponding to metagenome with ENA study accession number: PRJEB37062 and ENA sample accession number: ERS12561808 for biotransformation under anaerobic condition. The drug concentrations were measured over 9 timepoints collected between 0 and 24 hours of incubation by liquid-chromatography-coupled mass spectrometry (LC–MS)
Settings: 2 µM

Row | Compound | Bacterial Biotransformation
5 | CC[C@@H](CO)NC(=O)[C@@H]1C=C2c3cccc4c3c(cn4C)C[C@H]2N(C)C1.O=C(O)/C=C\C(=O)O [METHYSERGIDE MALEATE] | Compound NOT metabolized
6 | CCOC(=O)[C@H](CCc1ccccc1)N[C@@H](C)C(=O)N1[C@H](C(=O)O)C[C@H]2CCCC[C@@H]21 [TRANDOLAPRIL] | Compound NOT metabolized

Settings: human gut metagenome, 24 h, 2 µM
Remark: another data set of the same source

Row | Compound | Bacterial Biotransformation
7 | CC[C@@H](CO)NC(=O)[C@@H]1C=C2c3cccc4c3c(cn4C)C[C@H]2N(C)C1.O=C(O)/C=C\C(=O)O [METHYSERGIDE MALEATE] | Compound NOT metabolized
8 | CCOC(=O)[C@H](CCc1ccccc1)N[C@@H](C)C(=O)N1[C@H](C(=O)O)C[C@H]2CCCC[C@@H]21 [TRANDOLAPRIL] | Compound NOT metabolized

Settings: human gut metagenome, 24 h, 2 µM
Remark: another data set of the same source

Row | Compound | Bacterial Biotransformation
9 | CC[C@@H](CO)NC(=O)[C@@H]1C=C2c3cccc4c3c(cn4C)C[C@H]2N(C)C1.O=C(O)/C=C\C(=O)O [METHYSERGIDE MALEATE] | Compound NOT metabolized
10 | CCOC(=O)[C@H](CCc1ccccc1)N[C@@H](C)C(=O)N1[C@H](C(=O)O)C[C@H]2CCCC[C@@H]21 [TRANDOLAPRIL] | Compound NOT metabolized

Assay: (§1) The drug is tested on Z-014 corresponding to rat gut metagenome with ENA study accession number: PRJEB37062 and ENA sample accession number: ERS12561814 for biotransformation under anaerobic condition. The drug concentrations were measured over 9 timepoints collected between 0 and 24 hours of incubation by liquid-chromatography-coupled mass spectrometry (LC–MS)
Settings: 2 µM

Row | Compound | Bacterial Biotransformation
11 | CC[C@@H](CO)NC(=O)[C@@H]1C=C2c3cccc4c3c(cn4C)C[C@H]2N(C)C1.O=C(O)/C=C\C(=O)O [METHYSERGIDE MALEATE] | Compound NOT metabolized
12 | CCOC(=O)[C@H](CCc1ccccc1)N[C@@H](C)C(=O)N1[C@H](C(=O)O)C[C@H]2CCCC[C@@H]21 [TRANDOLAPRIL] | Compound NOT metabolized

Settings: human gut metagenome, 24 h, 2 µM
Remark: another data set of the same source

Row | Compound | Bacterial Biotransformation
13 | CC[C@@H](CO)NC(=O)[C@@H]1C=C2c3cccc4c3c(cn4C)C[C@H]2N(C)C1.O=C(O)/C=C\C(=O)O [METHYSERGIDE MALEATE] | Compound NOT metabolized
14 | CCOC(=O)[C@H](CCc1ccccc1)N[C@@H](C)C(=O)N1[C@H](C(=O)O)C[C@H]2CCCC[C@@H]21 [TRANDOLAPRIL] | Compound metabolized

Settings: human gut metagenome, 24 h, 2 µM
Remark: another data set of the same source

Row | Compound | Bacterial Biotransformation
15 | CC[C@@H](CO)NC(=O)[C@@H]1C=C2c3cccc4c3c(cn4C)C[C@H]2N(C)C1.O=C(O)/C=C\C(=O)O [METHYSERGIDE MALEATE] | Compound NOT metabolized
16 | CCOC(=O)[C@H](CCc1ccccc1)N[C@@H](C)C(=O)N1[C@H](C(=O)O)C[C@H]2CCCC[C@@H]21 [TRANDOLAPRIL] | Compound metabolized

Assay: as §1, with “on Z-013” for “on Z-014”, “to rabbit” for “to rat”, “number: ERS12561813” for “number: ERS12561814”
Settings: 2 µM

Row | Compound | Bacterial Biotransformation
17 | CC[C@@H](CO)NC(=O)[C@@H]1C=C2c3cccc4c3c(cn4C)C[C@H]2N(C)C1.O=C(O)/C=C\C(=O)O [METHYSERGIDE MALEATE] | Compound NOT metabolized
18 | CCOC(=O)[C@H](CCc1ccccc1)N[C@@H](C)C(=O)N1[C@H](C(=O)O)C[C@H]2CCCC[C@@H]21 [TRANDOLAPRIL] | Compound NOT metabolized

Settings: human gut metagenome, 24 h, 2 µM
Remark: another data set of the same source

Row | Compound | Bacterial Biotransformation
19 | CC[C@@H](CO)NC(=O)[C@@H]1C=C2c3cccc4c3c(cn4C)C[C@H]2N(C)C1.O=C(O)/C=C\C(=O)O [METHYSERGIDE MALEATE] | Compound NOT metabolized
20 | CCOC(=O)[C@H](CCc1ccccc1)N[C@@H](C)C(=O)N1[C@H](C(=O)O)C[C@H]2CCCC[C@@H]21 [TRANDOLAPRIL] | Compound metabolized

Assay: as §1, with “on Z-016” for “on Z-014”, “to mouse” for “to rat”, “number: ERS12561815” for “number: ERS12561814”
Settings: 2 µM

Row | Compound | Bacterial Biotransformation
21 | CC[C@@H](CO)NC(=O)[C@@H]1C=C2c3cccc4c3c(cn4C)C[C@H]2N(C)C1.O=C(O)/C=C\C(=O)O [METHYSERGIDE MALEATE] | Compound NOT metabolized
22 | CCOC(=O)[C@H](CCc1ccccc1)N[C@@H](C)C(=O)N1[C@H](C(=O)O)C[C@H]2CCCC[C@@H]21 [TRANDOLAPRIL] | Compound NOT metabolized

Assay: as §1, with “on WLS-038” for “on Z-014”, “to human” for “to rat”, “number: ERS12561745” for “number: ERS12561814”
Settings: 2 µM

Row | Compound | Bacterial Biotransformation
23 | CC[C@@H](CO)NC(=O)[C@@H]1C=C2c3cccc4c3c(cn4C)C[C@H]2N(C)C1.O=C(O)/C=C\C(=O)O [METHYSERGIDE MALEATE] | Compound NOT metabolized
24 | CCOC(=O)[C@H](CCc1ccccc1)N[C@@H](C)C(=O)N1[C@H](C(=O)O)C[C@H]2CCCC[C@@H]21 [TRANDOLAPRIL] | Compound metabolized

Assay: as §1, with “on WLS-007” for “on Z-014”, “to human” for “to rat”, “number: ERS12561742” for “number: ERS12561814”
Settings: 2 µM

Row | Compound | Bacterial Biotransformation
25 | CC[C@@H](CO)NC(=O)[C@@H]1C=C2c3cccc4c3c(cn4C)C[C@H]2N(C)C1.O=C(O)/C=C\C(=O)O [METHYSERGIDE MALEATE] | Compound NOT metabolized
26 | CCOC(=O)[C@H](CCc1ccccc1)N[C@@H](C)C(=O)N1[C@H](C(=O)O)C[C@H]2CCCC[C@@H]21 [TRANDOLAPRIL] | Compound metabolized

Assay: as §1, with “Z-019” for “Z-014”, “ERS12561818” for “ERS12561814”
Settings: 2 µM

Row | Compound | Bacterial Biotransformation
27 | CC[C@@H](CO)NC(=O)[C@@H]1C=C2c3cccc4c3c(cn4C)C[C@H]2N(C)C1.O=C(O)/C=C\C(=O)O [METHYSERGIDE MALEATE] | Compound NOT metabolized
28 | CCOC(=O)[C@H](CCc1ccccc1)N[C@@H](C)C(=O)N1[C@H](C(=O)O)C[C@H]2CCCC[C@@H]21 [TRANDOLAPRIL] | Compound NOT metabolized

Assay: as §1, with “on WLS-220” for “on Z-014”, “to human” for “to rat”, “number: ERS12561769” for “number: ERS12561814”
Settings: 2 µM

Row | Compound | Bacterial Biotransformation
29 | CC[C@@H](CO)NC(=O)[C@@H]1C=C2c3cccc4c3c(cn4C)C[C@H]2N(C)C1.O=C(O)/C=C\C(=O)O [METHYSERGIDE MALEATE] | Compound NOT metabolized
30 | CCOC(=O)[C@H](CCc1ccccc1)N[C@@H](C)C(=O)N1[C@H](C(=O)O)C[C@H]2CCCC[C@@H]21 [TRANDOLAPRIL] | Compound metabolized

Settings: human gut metagenome, 24 h, 2 µM
Remark: another data set of the same source

Row | Compound | Bacterial Biotransformation
31 | CC[C@@H](CO)NC(=O)[C@@H]1C=C2c3cccc4c3c(cn4C)C[C@H]2N(C)C1.O=C(O)/C=C\C(=O)O [METHYSERGIDE MALEATE] | Compound NOT metabolized
32 | CCOC(=O)[C@H](CCc1ccccc1)N[C@@H](C)C(=O)N1[C@H](C(=O)O)C[C@H]2CCCC[C@@H]21 [TRANDOLAPRIL] | Compound NOT metabolized

Assay: as §1, with “on WLS-073” for “on Z-014”, “to human” for “to rat”, “number: ERS12561749” for “number: ERS12561814”
Settings: 2 µM

Row | Compound | Bacterial Biotransformation
33 | CC[C@@H](CO)NC(=O)[C@@H]1C=C2c3cccc4c3c(cn4C)C[C@H]2N(C)C1.O=C(O)/C=C\C(=O)O [METHYSERGIDE MALEATE] | Compound NOT metabolized
34 | CCOC(=O)[C@H](CCc1ccccc1)N[C@@H](C)C(=O)N1[C@H](C(=O)O)C[C@H]2CCCC[C@@H]21 [TRANDOLAPRIL] | Compound metabolized

Assay: as §1, with “on WLS-086” for “on Z-014”, “to human” for “to rat”, “number: ERS12561752” for “number: ERS12561814”
Settings: 2 µM

Row | Compound | Bacterial Biotransformation
35 | CC[C@@H](CO)NC(=O)[C@@H]1C=C2c3cccc4c3c(cn4C)C[C@H]2N(C)C1.O=C(O)/C=C\C(=O)O [METHYSERGIDE MALEATE] | Compound metabolized
36 | CCOC(=O)[C@H](CCc1ccccc1)N[C@@H](C)C(=O)N1[C@H](C(=O)O)C[C@H]2CCCC[C@@H]21 [TRANDOLAPRIL] | Compound metabolized

Assay: as §1, with “on Z-017” for “on Z-014”, “to mouse” for “to rat”, “number: ERS12561816” for “number: ERS12561814”
Settings: 2 µM

Row | Compound | Bacterial Biotransformation
37 | CC[C@@H](CO)NC(=O)[C@@H]1C=C2c3cccc4c3c(cn4C)C[C@H]2N(C)C1.O=C(O)/C=C\C(=O)O [METHYSERGIDE MALEATE] | Compound NOT metabolized
38 | CCOC(=O)[C@H](CCc1ccccc1)N[C@@H](C)C(=O)N1[C@H](C(=O)O)C[C@H]2CCCC[C@@H]21 [TRANDOLAPRIL] | Compound NOT metabolized

Assay: as §1, with “on WLS-310” for “on Z-014”, “to human” for “to rat”, “number: ERS12561785” for “number: ERS12561814”
Settings: 2 µM

Row | Compound | Bacterial Biotransformation
39 | CC[C@@H](CO)NC(=O)[C@@H]1C=C2c3cccc4c3c(cn4C)C[C@H]2N(C)C1.O=C(O)/C=C\C(=O)O [METHYSERGIDE MALEATE] | Compound metabolized
40 | CCOC(=O)[C@H](CCc1ccccc1)N[C@@H](C)C(=O)N1[C@H](C(=O)O)C[C@H]2CCCC[C@@H]21 [TRANDOLAPRIL] | Compound metabolized

From ChEMBL document CHEMBL5724914, “Linking interpersonal differences in gut microbiota composition and drug biotransformation activity” (2024)
